Holding throughout (type): biochemical
For experiment [1], the target named is T1, human plasmin (Homo sapiens, UniProt P00747).
T1 construct: purchased Kordia
The experiment in a line: Measurement of plasmin inhibition (fluorogenic peptide substrate). The conditions noted are these: plasmin from Kordia, substrate MeOSuc-Ala-Phe-Lys-AMC, 30 min at 22° C. Here is the method:
The plasmin inhibition of the inventive substances is determined using a biochemical test system which utilizes the reaction of a peptidic plasmin substrate to determine the enzymatic activity of human plasmin. Here, plasmin cleaves from the peptic plasmin substrate the C-terminal aminomethylcoumarin (AMC), the fluorescence of which is measured. The determinations are carried out in microtitre plates.
(§1) Test substances are dissolved in dimethyl sulphoxide and serially diluted in dimethyl sulphoxide (3000 μM to 0.0078 μM; resulting final concentrations in the test: 50 μM to 0.00013 μM). In each case 1 μl of the diluted substance solutions are placed into the wells of white microtitre plates from Greiner (384 wells). Subsequently, the following are added successively: 20 μl of assay buffer (50 mmol/1 Tris buffer pH 7.4; 100 mmol/1 sodium chloride; 5 mmol/1 calcium chloride; 0.1% bovine serum albumin) and 20 μl of plasmin from Kordia (0.3 μg/ml in assay buffer). After 15 min of incubation, the enzyme reaction is started by addition of 20 μl of the plasmin substrate MeOSuc-Ala-Phe-Lys-AMC dissolved in assay buffer (150 μM in assay buffer) from Bachem, the mixture is incubated at room temperature (22° C.) for 30 min and fluorescence is then measured (excitation: 360 nm, emission: 460 nm). The measured emissions of the test batches with test substance are compared to those of control batches without test substance (only dimethyl sulphoxide instead of test substance in dimethyl sulphoxide), and the IC50 values are calculated from the concentration/activity relationships.

Experiment [2] deals with human and animal plasma. Nature of the experiment: Anticoagulatory activity: activated partial thromboplastin time (aPTT) in plasma. The conditions noted are these: in vitro in plasma, C.K. Prest kit, 37° C. for 3 minutes; plasma species of Table B not stated. Here is the method:
The anticoagulatory activity of the test substances is determined in vitro in human and animal plasma (for example mouse, rat, rabbit, pig and dog plasma). To this end, blood is drawn off in a mixing ratio of sodium citrate/blood of 1:9 using a 0.11 molar sodium citrate solution as receiver. Immediately after the blood has been drawn off, it is mixed thoroughly and centrifuged at about 4000 g for 15 minutes. The supernatant is pipetted off.
The activated partial thromboplastin time (aPTT) is determined in the presence of varying concentrations of test substance or the corresponding solvent using a commercial test kit (C.K. Prest from Diagnostica Stago). The test compounds are incubated with the plasma and the PTT reagent (cephalin, kaolin) at 37° C. for 3 minutes. Coagulation is then started by addition of 25 mM aqueous calcium chloride, and the time when coagulation occurs is determined. The concentration of test substance which brings about a 1.5-fold extension of the aPTT is determined.

Experiment [3] deals with T2, human factor XIa (Homo sapiens, UniProt P03951).
T2 construct: purchased Kordia
T2 sequence (P03951 388-625 limits assumed): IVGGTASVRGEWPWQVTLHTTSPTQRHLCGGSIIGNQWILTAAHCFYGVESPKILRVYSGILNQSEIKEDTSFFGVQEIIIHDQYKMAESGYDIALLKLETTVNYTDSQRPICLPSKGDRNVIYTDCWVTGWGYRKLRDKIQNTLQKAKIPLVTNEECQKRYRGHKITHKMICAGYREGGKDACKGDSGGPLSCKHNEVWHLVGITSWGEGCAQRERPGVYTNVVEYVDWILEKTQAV
T2 sequence (P03951 19-387 partner limits assumed): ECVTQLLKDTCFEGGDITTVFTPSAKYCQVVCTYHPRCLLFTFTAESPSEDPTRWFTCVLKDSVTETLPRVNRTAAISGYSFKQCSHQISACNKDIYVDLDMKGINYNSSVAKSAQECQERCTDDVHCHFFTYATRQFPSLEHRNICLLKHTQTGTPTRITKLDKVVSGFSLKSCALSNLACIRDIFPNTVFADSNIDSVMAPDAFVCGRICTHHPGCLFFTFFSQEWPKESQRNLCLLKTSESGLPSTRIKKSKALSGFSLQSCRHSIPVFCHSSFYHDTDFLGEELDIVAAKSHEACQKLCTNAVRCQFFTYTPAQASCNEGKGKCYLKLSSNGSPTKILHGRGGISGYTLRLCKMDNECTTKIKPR
The experiment in a line: Measurement of FXIa inhibition (fluorogenic peptide substrate). The conditions noted are these: human factor XIa from Kordia, substrate Boc-Glu(OBzl)-Ala-Arg-AMC, 30 min at 22° C.; read-out: IC50 (FXIa inhibition). On the procedure: To determine the factor XIa inhibition of the substances according to the invention, a biochemical test system is used which utilizes the reaction of a peptidic factor XIa substrate to determine the enzymatic activity of human factor XIa. Here, factor XIa cleaves from the peptic factor XIa substrate the C-terminal aminomethylcoumarin (AMC), the fluorescence of which is measured. The determinations are carried out in microtitre plates.
as §1, with “factor XIa” for “plasmin”, “(0.45 nM” for “(0.3 μg/ml”, “Boc-Glu(OBzl)-Ala-Arg-AMC” for “MeOSuc-Ala-Phe-Lys-AMC”, “(10” for “(150”

From patent publication US20160222056A1, “SUBSTITUTED PHENYLALANINE DERIVATIVES” (BAYER PHARMA AKTIENGESELLSCHAFT, priority 2013, published 2016) come the findings set out here.

Structures can show the parent of a compound that is named as a salt.

T1 sequence (P00747 581-810 limits assumed): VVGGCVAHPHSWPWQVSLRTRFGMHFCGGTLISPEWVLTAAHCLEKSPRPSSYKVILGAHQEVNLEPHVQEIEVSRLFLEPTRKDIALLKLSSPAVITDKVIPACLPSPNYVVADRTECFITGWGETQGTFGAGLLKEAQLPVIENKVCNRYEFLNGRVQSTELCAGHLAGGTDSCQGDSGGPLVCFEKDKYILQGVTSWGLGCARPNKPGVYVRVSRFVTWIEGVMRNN
T1 sequence (P00747 97-580 partner limits assumed): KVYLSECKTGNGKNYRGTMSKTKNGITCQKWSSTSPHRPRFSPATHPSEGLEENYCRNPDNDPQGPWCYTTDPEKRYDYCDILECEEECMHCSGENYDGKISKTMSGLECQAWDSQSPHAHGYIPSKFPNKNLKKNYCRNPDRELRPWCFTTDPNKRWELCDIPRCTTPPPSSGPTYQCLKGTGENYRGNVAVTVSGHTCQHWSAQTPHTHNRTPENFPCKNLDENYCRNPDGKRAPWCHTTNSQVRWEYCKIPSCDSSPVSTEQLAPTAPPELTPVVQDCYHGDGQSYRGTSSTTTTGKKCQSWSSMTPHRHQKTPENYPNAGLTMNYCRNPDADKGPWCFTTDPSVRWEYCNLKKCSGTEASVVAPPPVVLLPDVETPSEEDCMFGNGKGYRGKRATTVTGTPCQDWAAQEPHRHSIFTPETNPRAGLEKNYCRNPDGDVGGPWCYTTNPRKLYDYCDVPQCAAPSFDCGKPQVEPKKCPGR

By IC50 is commonly meant the point on the concentration scale where inhibition reaches its midpoint. For `Cc1nc(C(=O)NC(C)C(F)(F)F)ccc1-c1ccc(C[C@H](NC(=O)[C@H]2CC[C@H](CN)CC2)C(=O)Nc2ccc3cn[nH]c3c2)cc1` (stereo partly drawn) [Example 35, N-alpha-{[trans-4-(Aminomethyl)cyclohexyl]carbonyl}-N-1H-indazol-6-yl-4-{2-methyl-6-[(1,1,1-trifluoropropan-2-yl)carbamoyl]pyridin-3-yl}-L-phenylalaninamide hydrochloride], the results for the IC50 in experiment [1] and in experiment [3] were 1.1 nM and 8.7 nM, respectively. Also, the “aPTT (concentration of test substance which brings about a 1.5-fold extension of the aPTT)” value in experiment [2] stood at 0.49 µmol/L.
As for `Cc1nc(C(=O)NC(C)C)ccc1-c1ccc(C[C@H](NC(=O)[C@H]2CC[C@H](CN)CC2)C(=O)Nc2ccc3[nH]c(=O)[nH]c3c2)cc1` [Example 40, N-alpha-{[trans-4-(Aminomethyl)cyclohexyl]carbonyl}-4-[6-(isopropylcarbamoyl)-2-methylpyridin-3-yl]-N-(2-oxo-2,3-dihydro-1H-benzimidazol-5-yl)-L-phenylalaninamide hydrochloride], the 50% inhibitory concentration (IC50) in experiment [1] came out at 1.8 nM; in experiment [3], 15.5 nM.
Consider `Cc1nc(C(=O)NC2CCC2)ccc1-c1ccc(C[C@H](NC(=O)[C@H]2CC[C@H](CN)CC2)C(=O)Nc2ccc3[nH]c(=O)[nH]c3c2)cc1` [Example 37, N-alpha-{[trans-4-(Aminomethyl)cyclohexyl]carbonyl}-4-[6-(cyclobutylcarbamoyl)-2-methylpyridin-3-yl]-N-(2-oxo-2,3-dihydro-1H-benzimidazol-5-yl)-L-phenylalaninamide hydrochloride], for which the IC50 in experiment [1] came out at 1.5 nM; in experiment [3], 13 nM. In experiment [2], the “aPTT (concentration of test substance which brings about a 1.5-fold extension of the aPTT)” value was 0.2 µmol/L.
On to `Cc1nc(C(=O)NC(C)C)ccc1-c1ccc(C[C@H](NC(=O)[C@H]2CC[C@H](CN)CC2)C(=O)Nc2ccc3c(=O)[nH][nH]c3c2)cc1` [Example 39, N-alpha-{[trans-4-(Aminomethyl)cyclohexyl]carbonyl}-4-[6-(isopropylcarbamoyl)-2-methylpyridin-3-yl]-N-(3-oxo-2,3-dihydro-1H-indazol-6-yl)-L-phenylalaninamide hydrochloride], for which the figures for the IC50 in experiment [1] and in experiment [3] were 1.2 nM and 4.3 nM, respectively. Also, the “aPTT (concentration of test substance which brings about a 1.5-fold extension of the aPTT)” value in experiment [2] came to 0.27 µmol/L.
In the case of `Cc1nc(C(=O)N[C@H](C)CO)ccc1-c1ccc(C[C@H](NC(=O)[C@H]2CC[C@H](CN)CC2)C(=O)Nc2ccc(-c3nn[nH]n3)cc2)cc1` [Example 29, N-alpha-{[trans-4-(Aminomethyl)cyclohexyl]carbonyl}-4-(6-{[(2R)-1-hydroxypropan-2-yl]carbamoyl}-2-methylpyridin-3-yl)-N-[4-(2H-tetrazol-5-yl)phenyl]-L-phenylalaninamide hydrochloride], the half-maximal inhibitory concentration (IC50) in experiment [1] is 10 nM; in experiment [3], 2.4 nM.
Regarding `Cc1nc(C(=O)NC(C)C(F)(F)F)ccc1-c1ccc(C[C@H](NC(=O)[C@H]2CC[C@H](CN)CC2)C(=O)Nc2ccc3[nH]c(=O)[nH]c3c2)cc1` (stereo partly drawn) [Example 36, N-alpha-{[trans-4-(Aminomethyl)cyclohexyl]carbonyl}-4-{2-methyl-6-[(1,1,1-trifluoropropan-2-yl)carbamoyl]pyridin-3-yl}-N-(2-oxo-2,3-dihydro-1H-benzimidazol-5-yl)-L-phenylalaninamide hydrochloride], the half-inhibitory concentration (IC50) in experiment [1] was found to be 1.2 nM; in experiment [3] it was 11 nM. The “aPTT (concentration of test substance which brings about a 1.5-fold extension of the aPTT)” value in experiment [2] is 0.21 µmol/L.
For `Cc1nc(C(=O)NC2CCC2)ccc1-c1ccc(C[C@H](NC(=O)[C@H]2CC[C@H](CN)CC2)C(=O)Nc2ccc3cn[nH]c3c2)cc1` [Example 34, N-alpha-{[trans-4-(Aminomethyl)cyclohexyl]carbonyl}-4-[6-(cyclobutylcarbamoyl)-2-methylpyridin-3-yl]-N-1H-indazol-6-yl-L-phenylalaninamide hydrochloride] the same measures were 0.9 nM, 8.2 nM and 0.41 µmol/L.
Take `Cc1nc(C(=O)N[C@@H]2CCNC2=O)ccc1-c1ccc(C[C@H](NC(=O)[C@H]2CC[C@H](CN)CC2)C(=O)Nc2ccc(-c3nn[nH]n3)cc2)cc1` [Example 26, N-alpha-{[trans-4-(Aminomethyl)cyclohexyl]carbonyl}-4-(2-methyl-6-{[(3R)-2-oxopyrrolidin-3-yl]carbamoyl}pyridin-3-yl)-N-[4-(2H-tetrazol-5-yl)phenyl]-L-phenylalaninamide hydrochloride]: in experiment [2], the “aPTT (concentration of test substance which brings about a 1.5-fold extension of the aPTT)” value came out at 0.22 µmol/L. Further, the half-maximal inhibitory concentration (IC50) in experiment [3] came to 1.3 nM.
On to `Cc1cc(C(=O)Nc2ccn(C)n2)ncc1-c1ccc(C[C@H](NC(=O)[C@H]2CC[C@H](CN)CC2)C(=O)Nc2ccc(-c3nnn[nH]3)cc2)cc1` [Example 23, N-alpha-{[trans-4-(Aminomethyl)cyclohexyl]carbonyl}-4-{4-methyl-6-[(1-methyl-1H-pyrazol-3-yl)carbamoyl]pyridin-3-yl}-N-[4-(1H-tetrazol-5-yl)phenyl]-L-phenylalaninamide hydrochloride], for which the results for the IC50 in experiment [1] and in experiment [3] were 4.5 nM and 2.5 nM, respectively. Moreover, the “aPTT (concentration of test substance which brings about a 1.5-fold extension of the aPTT)” value in experiment [2] amounted to 0.17 µmol/L.
As for `Cc1cc(C(=O)NC2CNCC(F)(F)C2)ncc1-c1ccc(C[C@H](NC(=O)[C@H]2CC[C@H](CN)CC2)C(=O)Nc2ccc(-c3nnn[nH]3)cc2)cc1` (stereo partly drawn) [Example 20, N-alpha-{[trans-4-(Aminomethyl)cyclohexyl]carbonyl}-4-{6-[(5,5-difluoropiperidin-3-yl)carbamoyl]-4-methylpyridin-3-yl}-N-[4-(1H-tetrazol-5-yl)phenyl]-L-phenylalaninamide hydrochloride], in experiment [2], the “aPTT (concentration of test substance which brings about a 1.5-fold extension of the aPTT)” value came out at 0.13 µmol/L. Further, the IC50 in experiment [3] was 3.9 nM.
`Cc1nc(C(=O)NC(C)C)ccc1-c1ccc(C[C@H](NC(=O)[C@H]2CC[C@H](CN)CC2)C(=O)Nc2cc(Cl)c3oc(=O)[nH]c3c2)cc1` [Example 38, N-alpha-{[trans-4-(Aminomethyl)cyclohexyl]carbonyl}-N-(7-chloro-2-oxo-2,3-dihydro-1,3-benzoxazol-5-yl)-4-[6-(isopropylcarbamoyl)-2-methylpyridin-3-yl]-L-phenylalaninamide hydrochloride]: the 50% inhibitory concentration (IC50) in experiment [1] is 0.8 nM; in experiment [3] it was 14 nM. Besides, the “aPTT (concentration of test substance which brings about a 1.5-fold extension of the aPTT)” value in experiment [2] was found to be 0.99 µmol/L.
